Results reported in PMC10709409, “Cryo-EM structures of human organic anion transporting polypeptide OATP1B1” (Cell Research, 2023).

Columns and labels:
OATP1B1 [1] = biological target: T1, OATP1B1 (Homo sapiens, UniProt Q9Y6L6); design: gene SLCO1B1
T1 sequence (Q9Y6L6 1-691): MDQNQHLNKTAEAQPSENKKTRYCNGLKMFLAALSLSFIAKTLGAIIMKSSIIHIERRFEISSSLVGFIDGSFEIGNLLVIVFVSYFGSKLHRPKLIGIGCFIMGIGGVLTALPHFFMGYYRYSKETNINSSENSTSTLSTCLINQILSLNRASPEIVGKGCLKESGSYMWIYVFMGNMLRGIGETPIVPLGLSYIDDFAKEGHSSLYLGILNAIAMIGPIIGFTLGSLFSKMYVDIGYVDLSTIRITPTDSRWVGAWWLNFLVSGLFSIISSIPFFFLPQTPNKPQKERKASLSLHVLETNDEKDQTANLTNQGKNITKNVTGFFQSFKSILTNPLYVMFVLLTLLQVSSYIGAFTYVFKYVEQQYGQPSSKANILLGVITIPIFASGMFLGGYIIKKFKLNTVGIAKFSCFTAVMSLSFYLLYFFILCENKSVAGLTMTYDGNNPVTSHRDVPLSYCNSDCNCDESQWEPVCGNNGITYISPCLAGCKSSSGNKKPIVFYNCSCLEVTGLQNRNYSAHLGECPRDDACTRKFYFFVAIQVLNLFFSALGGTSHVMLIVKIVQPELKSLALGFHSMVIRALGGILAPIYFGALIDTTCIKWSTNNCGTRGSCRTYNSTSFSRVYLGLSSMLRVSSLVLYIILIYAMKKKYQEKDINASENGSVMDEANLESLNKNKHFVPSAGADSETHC

OATP1B1 [2] = biological target: T1, OATP1B1; experiment: cryo-EM structure (outward-open, […] Å); also cell DCF uptake assay; assay type: binding; design: gene SLCO1B1; human OATP1B1 with C-terminal tandem His and Flag tags
OATP1B1 [3] = biological target: T1, OATP1B1; experiment: cryo-EM structure (inward-open, […] Å); also [3H]-E3S proteoliposome counterflow and DCF uptake inhibition; assay type: binding; design: gene SLCO1B1; human OATP1B1 with C-terminal tandem His and Flag tags

Structure (SMILES)	cryo-EM structure (outward-open, 3.73 Å); also DCF uptake inhibition in HEK293T (OATP1B1 [1])	also measured
C=CC1=C(C)/C(=C/c2[nH]c(Cc3[nH]c(/C=C4\NC(=O)C(C)=C4C=C)c(C)c3CCC(=O)O)c(CCC(=O)O)c2C)NC1=O [B, bilirubin]	Bilirubin and simeprevir occupy the major pocket located in the central cavity, while DCF binds to the minor pocket	–
O=C1OC2(c3cc(Cl)c(O)cc3Oc3cc(O)c(Cl)cc32)c2ccccc21 [D, 2′,7′-dichlorofluorescein]	–	cryo-EM structure (outward-open, 2.92 Å); also cell DCF uptake assay (OATP1B1 [2]): DCF extends towards a minor hydrophilic pocket within the interior of the CTD by forming hydrogen-bond interactions with N544 and S548
C[C@]12CC[C@H]3c4ccc(OS(=O)(=O)O)cc4CC[C@@H]3[C@@H]1CCC2=O [E, estrone-3-sulfate]	–	cryo-EM structure (inward-open, 3.2 Å); also [3H]-E3S proteoliposome counterflow (OATP1B1 [3]): The EM density of E3S in OATP1B1–Ein is unambiguously resolved, allowing us to discern the pose of the E3S
COc1ccc2c(O[C@@H]3C[C@H]4C(=O)N[C@]5(C(=O)NS(=O)(=O)C6CC6)C[C@H]5/C=C\CCCCN(C)C(=O)[C@@H]4C3)cc(-c3nc(C(C)C)cs3)nc2c1C [S, simeprevir]	Bilirubin and simeprevir occupy the major pocket located in the central cavity, while DCF binds to the minor pocket	–
